Experimental findings from article PMC5564600 (Oncotarget, 2017) are described below.

Assay in all cases: biochemical
What all share (format): binding

In assay [1] the target is T1, panel of 442 kinases (Homo sapiens, UniProt Q8TD19).
T1 construct: purchased Ambit Biosciences (scanMAXX KINOMEscan)
T1 sequence (Q8TD19 1-979): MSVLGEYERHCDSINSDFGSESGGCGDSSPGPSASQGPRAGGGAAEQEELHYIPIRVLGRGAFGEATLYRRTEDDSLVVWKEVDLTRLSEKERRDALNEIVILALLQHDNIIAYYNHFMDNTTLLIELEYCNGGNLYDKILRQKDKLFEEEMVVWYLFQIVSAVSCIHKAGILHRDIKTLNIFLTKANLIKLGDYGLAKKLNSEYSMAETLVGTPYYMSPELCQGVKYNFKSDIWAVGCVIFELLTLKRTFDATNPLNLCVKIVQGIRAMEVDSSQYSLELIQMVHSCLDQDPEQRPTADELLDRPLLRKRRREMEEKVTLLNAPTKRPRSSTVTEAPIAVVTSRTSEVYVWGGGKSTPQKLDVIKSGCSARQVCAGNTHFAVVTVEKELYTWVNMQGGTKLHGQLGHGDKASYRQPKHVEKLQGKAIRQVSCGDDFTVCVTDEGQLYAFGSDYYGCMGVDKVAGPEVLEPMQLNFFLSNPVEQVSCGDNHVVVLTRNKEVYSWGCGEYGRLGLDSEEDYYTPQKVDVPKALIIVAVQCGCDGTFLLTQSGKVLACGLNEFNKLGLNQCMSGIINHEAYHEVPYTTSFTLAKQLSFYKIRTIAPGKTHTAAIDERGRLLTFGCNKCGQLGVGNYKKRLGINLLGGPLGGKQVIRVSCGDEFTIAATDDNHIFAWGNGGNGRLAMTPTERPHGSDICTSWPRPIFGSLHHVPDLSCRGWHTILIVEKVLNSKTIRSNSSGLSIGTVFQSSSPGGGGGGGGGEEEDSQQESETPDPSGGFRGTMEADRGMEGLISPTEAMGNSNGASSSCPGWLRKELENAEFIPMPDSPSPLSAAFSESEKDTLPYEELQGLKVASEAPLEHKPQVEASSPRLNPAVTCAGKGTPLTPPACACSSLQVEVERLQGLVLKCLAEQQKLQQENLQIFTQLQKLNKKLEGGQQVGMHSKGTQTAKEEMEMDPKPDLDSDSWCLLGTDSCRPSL
To be noted: kinase NEK9; for remaining activity at 1 µM: read-out: % of control at 1 µM.

Assay [2] concerns the target T2, panel of 442 kinases (Homo sapiens, UniProt O14733).
T2 construct: purchased Ambit Biosciences (scanMAXX KINOMEscan)
T2 sequence (O14733 1-419): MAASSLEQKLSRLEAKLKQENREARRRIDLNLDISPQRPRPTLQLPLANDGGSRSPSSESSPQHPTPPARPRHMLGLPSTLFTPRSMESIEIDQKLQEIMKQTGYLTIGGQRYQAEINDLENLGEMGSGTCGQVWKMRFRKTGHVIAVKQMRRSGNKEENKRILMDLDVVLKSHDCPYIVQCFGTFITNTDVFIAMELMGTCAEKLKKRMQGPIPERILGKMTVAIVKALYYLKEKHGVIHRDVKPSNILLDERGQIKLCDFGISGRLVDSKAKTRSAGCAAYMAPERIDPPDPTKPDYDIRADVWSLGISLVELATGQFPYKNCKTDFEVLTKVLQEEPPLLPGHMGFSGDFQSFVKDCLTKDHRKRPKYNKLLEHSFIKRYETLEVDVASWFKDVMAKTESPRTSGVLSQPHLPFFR
To be noted: kinase MKK7; for remaining activity at 1 µM: read-out: % of control at 1 µM.

Assay [3] has as its target T3, panel of 442 kinases (Homo sapiens, UniProt Q92630).
T3 construct: purchased Ambit Biosciences (scanMAXX KINOMEscan)
T3 sequence (Q92630 1-601): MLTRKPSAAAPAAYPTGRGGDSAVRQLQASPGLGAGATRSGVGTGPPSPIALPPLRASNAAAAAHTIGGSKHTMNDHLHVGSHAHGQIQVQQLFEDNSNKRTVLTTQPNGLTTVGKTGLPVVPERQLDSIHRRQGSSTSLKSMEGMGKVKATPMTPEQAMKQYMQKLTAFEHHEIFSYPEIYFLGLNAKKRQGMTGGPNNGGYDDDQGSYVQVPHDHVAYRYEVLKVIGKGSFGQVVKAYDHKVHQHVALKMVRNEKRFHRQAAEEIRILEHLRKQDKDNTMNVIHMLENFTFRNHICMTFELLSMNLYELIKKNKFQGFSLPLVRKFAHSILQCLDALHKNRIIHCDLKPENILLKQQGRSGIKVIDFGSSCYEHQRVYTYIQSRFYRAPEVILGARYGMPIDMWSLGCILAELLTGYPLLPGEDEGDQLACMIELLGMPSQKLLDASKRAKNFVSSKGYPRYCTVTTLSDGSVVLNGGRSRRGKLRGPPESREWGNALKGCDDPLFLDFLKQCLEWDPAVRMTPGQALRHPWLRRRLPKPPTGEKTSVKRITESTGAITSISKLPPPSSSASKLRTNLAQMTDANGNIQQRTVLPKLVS
To be noted: DYRK2; for remaining activity at 1 µM: read-out: % of control at 1 µM.

The target of assay [4] is T4, panel of 442 kinases (Homo sapiens, UniProt Q2M2I8).
T4 construct: purchased Ambit Biosciences (scanMAXX KINOMEscan)
To be noted: AAK1; for remaining activity at 1 µM: read-out: % of control at 1 µM.

Where [5] appears, read: 10 µM, read-out: % of control at 10 µM.

T4 sequence (Q2M2I8 whole entry): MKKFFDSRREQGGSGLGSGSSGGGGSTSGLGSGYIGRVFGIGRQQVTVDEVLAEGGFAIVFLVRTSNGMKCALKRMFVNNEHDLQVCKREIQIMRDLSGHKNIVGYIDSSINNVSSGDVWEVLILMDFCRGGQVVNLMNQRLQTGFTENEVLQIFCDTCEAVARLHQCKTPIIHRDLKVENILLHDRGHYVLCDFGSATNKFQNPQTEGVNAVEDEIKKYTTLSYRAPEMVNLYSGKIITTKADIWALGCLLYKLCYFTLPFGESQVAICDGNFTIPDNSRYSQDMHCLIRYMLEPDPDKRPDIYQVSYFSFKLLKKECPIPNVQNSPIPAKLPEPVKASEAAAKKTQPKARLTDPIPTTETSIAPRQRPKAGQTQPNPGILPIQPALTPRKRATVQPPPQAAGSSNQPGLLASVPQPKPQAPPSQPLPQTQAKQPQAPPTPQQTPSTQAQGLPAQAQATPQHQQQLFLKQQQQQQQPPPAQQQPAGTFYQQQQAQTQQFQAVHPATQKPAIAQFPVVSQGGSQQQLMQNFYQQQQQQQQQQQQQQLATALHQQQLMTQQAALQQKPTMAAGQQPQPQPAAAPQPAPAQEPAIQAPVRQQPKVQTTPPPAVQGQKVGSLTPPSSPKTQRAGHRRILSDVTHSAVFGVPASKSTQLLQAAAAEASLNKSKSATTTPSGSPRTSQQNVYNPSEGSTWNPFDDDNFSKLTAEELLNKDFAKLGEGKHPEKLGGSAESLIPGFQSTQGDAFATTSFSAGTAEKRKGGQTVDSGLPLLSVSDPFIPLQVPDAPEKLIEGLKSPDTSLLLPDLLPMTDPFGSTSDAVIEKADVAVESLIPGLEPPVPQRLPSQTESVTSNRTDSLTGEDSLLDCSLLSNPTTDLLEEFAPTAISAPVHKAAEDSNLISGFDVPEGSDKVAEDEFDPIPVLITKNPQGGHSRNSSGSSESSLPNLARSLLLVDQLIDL

For `COc1ncc(-c2ccc3nccc(-c4ccnnc4)c3c2)cc1NS(=O)(=O)c1ccc(F)cc1F` [Omipalisib], the remaining activity at 1 µM came to 100% in assay [1], 100% in assay [2], 88% in assay [3] and 66% in assay [4].

Take `Cn1c(=O)n(-c2ccc(C(C)(C)C#N)cc2)c2c3cc(-c4cnc5ccccc5c4)ccc3ncc21` [Dactolisib, 2-methyl-2-[4-(3-methyl-2-oxo-8-quinolin-3-yl-2,3-dihydroimidazo[4,5-c]quinolin-1-yl)-phenyl] propionitrile]: the remaining activity at 1 µM is 96% in assay [1], 100% in assay [2], 67% in assay [3] and 84% in assay [4].

For the compound `Nc1cc(C(F)(F)F)c(-c2cc(N3CCOCC3)nc(N3CCOCC3)n2)cn1` [Buparlisib], the remaining activity at 1 µM in assay [1] came to 94%; in assay [2] it was 100%; in assay [3] it was 80%; in assay [4], 97%. In addition, the remaining activity at 10 µM worked out at 100% in assay [1] (setting [5]), 99% in assay [2] (setting [5]), 100% in assay [3] (setting [5]) and 100% in assay [4] (setting [5]).

With `FC(F)c1nc2ccccc2n1-c1nc(N2CCOCC2)nc(N2CCOCC2)n1` [ZSTK474, 2-(difluoromethyl)-1-[4,6-di(4-morpholinyl)-1,3,5-triazin-2-yl]-1H-benzimidazole], the remaining activity at 1 µM in assay [1] was found to be 84%; in assay [2] it was 100%; in assay [3], 78%; in assay [4], 100%.
